Data taken from patent US7381705B2, “Inhibitors of hepatitis C virus” (The Administrators Of The Tulane Educational Fund, priority 2004, dated 2008).
Like-named read-outs stand apart in the source and are kept apart here. Peptide text beside a SMILES is read from it.

System: HCV pseudotype (HIV core proteins, HCV E1 and E2 of strain H77)
Conditions: for Percent inhibition: 25 μM
[1] = HCV H77 1a E2 peptides at ~25 μM, Table 7, virus alone 448,123
[2] = HCV J4 1b E2 peptides at ~25 μM, Table 8, controls as in Table 7

SMILES	Percent inhibition [%]	Luciferase units [1]	Luciferase units [2]
CC[C@H](C)[C@H](NC(=O)CNC(=O)[C@H](CS)NC(=O)[C@@H]1CCCN1C(=O)[C@H](CCCNC(=N)N)NC(=O)[C@@H]1CCCN1C(=O)[C@@H]1CCCN1C(=O)[C@H](Cc1ccc(O)cc1)NC(=O)[C@H](Cc1c[nH]cn1)NC(=O)[C@H](Cc1c[nH]c2ccccc12)NC(=O)[C@H](CS)NC(=O)[C@H](Cc1ccc(O)cc1)NC(=O)[C@@H]1CCCN1)C(=O)N[C@H](C(=O)N1CCC[C@H]1C(=O)N[C@@H](C)C(=O)N[C@@H](CCCCN)C(=O)N[C@@H](CO)C(=O)O)C(C)C [compound 15, PYCWHYPPRPCGIVPAKS] (H-PYCWHYPPRPCGIVPAKS-OH; N-terminus and C-terminus assumed)	43.5	253,410 luciferase units (lumens)	–
CC[C@H](C)[C@H](NC(=O)CNC(=O)[C@H](CS)NC(=O)[C@@H]1CCCN1C(=O)[C@H](CCCNC(=N)N)NC(=O)[C@@H]1CCCN1)C(=O)N[C@H](C(=O)N1CCC[C@H]1C(=O)N[C@@H](C)C(=O)N[C@@H](CCCCN)C(=O)N[C@@H](CO)C(=O)N[C@H](C(=O)N[C@@H](CS)C(=O)NCC(=O)N1CCC[C@H]1C(=O)N[C@H](C(=O)N[C@@H](Cc1ccc(O)cc1)C(=O)N[C@@H](CS)C(=O)O)C(C)C)C(C)C)C(C)C [compound 16, PRPCGIVPAKSVCGPVYC] (H-PRPCGIVPAKSVCGPVYC-OH; N-terminus and C-terminus assumed)	10.0	403,430 luciferase units (lumens)	–
CC(C)[C@H](NC(=O)[C@@H](NC(=O)[C@@H]1CCCN1C(=O)[C@H](CO)NC(=O)[C@@H]1CCCN1C(=O)[C@@H](NC(=O)[C@H](Cc1ccccc1)NC(=O)[C@H](CS)NC(=O)[C@H](Cc1ccc(O)cc1)NC(=O)[C@@H](NC(=O)[C@@H]1CCCN1C(=O)CNC(=O)[C@H](CS)NC(=O)[C@@H](NC(=O)[C@H](CO)NC(=O)[C@H](CCCCN)NC(=O)[C@H](C)NC(=O)[C@@H]1CCCN1)C(C)C)C(C)C)[C@@H](C)O)C(C)C)C(=O)O [compound 17, PAKSVCGPVYCFTPSPVV] (H-PAKSVCGPVYCFTPSPVV-OH; N-terminus and C-terminus assumed)	43.2	254,516 luciferase units (lumens)	–
CC[C@H](C)[C@H](NC(=O)[C@@H](NC(=O)[C@H](CS)NC(=O)[C@@H]1CCCN1)C(C)C)C(=O)NCC(=O)NCC(=O)N[C@H](C(=O)NCC(=O)N[C@@H](CC(N)=O)C(=O)N[C@@H](CC(N)=O)C(=O)N[C@H](C(=O)N[C@@H](CC(C)C)C(=O)N[C@@H](CC(C)C)C(=O)N[C@@H](CS)C(=O)N1CCC[C@H]1C(=O)N[C@H](C(=O)N[C@@H](CC(=O)O)C(=O)N[C@@H](CS)C(=O)O)[C@@H](C)O)[C@@H](C)O)C(C)C [compound 26, PCVIGGVGNNTLLCPTDC] (H-PCVIGGVGNNTLLCPTDC-OH; N-terminus and C-terminus assumed)	51.6	216,706 luciferase units (lumens)	–
CC[C@H](C)[C@H](NC(=O)[C@@H](NC(=O)[C@H](CC(C)C)NC(=O)[C@H](CC(N)=O)NC(=O)[C@H](CCC(=O)O)NC(=O)[C@H](CC(C)C)NC(=O)[C@H](C)NC(=O)[C@H](C)NC(=O)[C@H](CCC(=O)O)NC(=O)[C@H](C)NC(=O)[C@H](CCC(N)=O)NC(=O)[C@H](CO)NC(=O)[C@@H](NC(=O)[C@H](CC(C)C)NC(=O)[C@H](CC(C)C)NC(=O)[C@H](CCSC)NC(=O)[C@H](CCSC)NC(=O)[C@@H](N)Cc1c[nH]c2ccccc12)[C@@H](C)CC)C(C)C)C(=O)O [compound 50, WMMLLISQAEAALENLVI]	87.9	58,790 luciferase units (lumens)	–
CC[C@H](C)[C@H](NC(=O)[C@H](Cc1c[nH]cn1)NC(=O)[C@H](Cc1c[nH]c2ccccc12)NC(=O)[C@H](CO)NC(=O)CNC(=O)[C@H](CC(N)=O)NC(=O)[C@@H](NC(=O)[C@H](CC(N)=O)NC(=O)[C@@H](NC(=O)[C@H](CC(C)C)NC(=O)[C@H](CCC(N)=O)NC(=O)[C@@H](NC(=O)[C@H](CCCCN)NC(=O)[C@H](CCC(N)=O)NC(=O)[C@H](CO)NC(=O)[C@H](C)N)[C@@H](C)CC)C(C)C)[C@@H](C)O)C(=O)N[C@@H](CC(N)=O)C(=O)N[C@@H](CCCNC(=N)N)C(=O)O [compound 83, ASQKIQLVNTNGSWHINR]	−15.8	–	518,993 luciferase units (lumens)
CC[C@H](C)[C@H](NC(=O)[C@@H](N)Cc1c[nH]cn1)C(=O)N[C@@H](CC(N)=O)C(=O)N[C@@H](CCCNC(=N)N)C(=O)N[C@H](C(=O)N[C@@H](C)C(=O)N[C@@H](CC(C)C)C(=O)N[C@@H](CC(N)=O)C(=O)N[C@@H](CS)C(=O)N[C@@H](CC(N)=O)C(=O)N[C@@H](CC(=O)O)C(=O)N[C@@H](CO)C(=O)N[C@@H](CC(C)C)C(=O)N[C@@H](CCC(N)=O)C(=O)N[C@H](C(=O)NCC(=O)N[C@@H](Cc1ccccc1)C(=O)N[C@@H](Cc1ccccc1)C(=O)O)[C@@H](C)O)[C@@H](C)O [compound 84, HINRTALNCNDSLQTGFF]	12.5	–	392,023 luciferase units (lumens)
CC(C)C[C@H](NC(=O)[C@H](C)NC(=O)[C@H](C)NC(=O)[C@H](Cc1ccccc1)NC(=O)[C@H](Cc1ccccc1)NC(=O)CNC(=O)[C@@H](NC(=O)[C@H](CCC(N)=O)NC(=O)[C@H](CC(C)C)NC(=O)[C@H](CO)NC(=O)[C@H](CC(=O)O)NC(=O)[C@H](CC(N)=O)NC(=O)[C@H](CS)NC(=O)[C@@H](N)CC(N)=O)[C@@H](C)O)C(=O)N[C@@H](Cc1ccccc1)C(=O)N[C@@H](Cc1ccc(O)cc1)C(=O)N[C@@H](C)C(=O)N[C@@H](Cc1c[nH]cn1)C(=O)O [compound 85, NCNDSLQTGFFAALFYAH]	74.9	–	112,260 luciferase units (lumens)
CC(C)[C@H](NC(=O)CNC(=O)[C@H](CS)NC(=O)[C@@H]1CCCN1C(=O)[C@H](CCCNC(=N)N)NC(=O)[C@@H]1CCCN1)C(=O)N[C@H](C(=O)N1CCC[C@H]1C(=O)N[C@@H](C)C(=O)N[C@@H](CO)C(=O)N[C@@H](CCC(N)=O)C(=O)N[C@H](C(=O)N[C@@H](CS)C(=O)NCC(=O)N1CCC[C@H]1C(=O)N[C@H](C(=O)N[C@@H](Cc1ccc(O)cc1)C(=O)N[C@@H](CS)C(=O)O)C(C)C)C(C)C)C(C)C [compound 92, PRPCGVVPASQVCGPVYC] (H-PRPCGVVPASQVCGPVYC-OH; N-terminus and C-terminus assumed)	16.9	–	372,400 luciferase units (lumens)
CSCC[C@H](NC(=O)[C@@H](NC(=O)[C@H](CC(=O)O)NC(=O)[C@@H](NC(=O)[C@@H](N)CCC(=O)O)[C@@H](C)O)C(C)C)C(=O)N[C@@H](CC(C)C)C(=O)N[C@@H](CC(C)C)C(=O)N[C@@H](CC(N)=O)C(=O)N[C@@H](CC(N)=O)C(=O)N[C@H](C(=O)N[C@@H](CCCNC(=N)N)C(=O)N1CCC[C@H]1C(=O)N1CCC[C@H]1C(=O)N[C@@H](CCC(N)=O)C(=O)NCC(=O)N[C@@H](CC(N)=O)C(=O)N[C@@H](Cc1c[nH]c2ccccc12)C(=O)N[C@@H](Cc1ccccc1)C(=O)O)[C@@H](C)O [compound 98, ETDVMLLNNTRPPQGNWF]	−4.4	–	467,636 luciferase units (lumens)
